Type in all cases: in vivo
Test [1] relates to Blumeria graminis f. sp. hordei; Synonym: Erysiphe graminis f. sp. hordei. Briefly: Barley Powdery Mildew (ERYSGH) disease control. Particulars: Blumeria graminis, 24 h, 1 Day Protectant, read-out: Disease Control ERYSGH 1 DP. In a few lines:
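Barley seedlings (Harrington) at full first-leaf stage sprayed to run-off with compound in acetone/water (1:9) containing 110 ppm Triton X-100, then inoculated 24 h later by dusting from infected stock plants. Disease developed in greenhouse at 20 °C; severity scored 0–100% and control calculated relative to untreated plants.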

Test [2] deals with Puccinia triticina; Synonym: Puccinia recondite f. Sp. Tritici. The test can be described thus: Wheat Brown Rust (PUCCRT) disease control. As to conditions: Puccinia triticina, topical; for pest or weed control at 100 ppm: rate 100 ppm. In a few lines:
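Brown rust on first-leaf Yuma wheat: spore inoculation before or after spray application (acetone/Triton X-100 solution, or EC with Trycol in track spray), overnight 100% RH at 22 °C, disease developed at 24 °C. Severity scored 0–100% and converted to percent control against untreated.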

The test system of test [3] is Mycosphaerella graminicola; Anamorph: Septoria tritici. The test can be described thus: Leaf Blotch of Wheat (SEPTTR) disease control. Particulars: Zymoseptoria tritici; for pest or weed control at 100 ppm: rate 100 ppm. In a few lines: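 Wheat seedlings (Yuma, first leaf emerged) sprayed to run-off with compound in acetone/water with 110 ppm Triton X-100, or track-sprayed as EC with 0.1% Trycol 5941. Septoria tritici spores inoculated before or after treatment. Dew chambers, then 20 °C greenhouse. Percent disease control derived from severity (0–100%) relative to untreated plants.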

The test system of a further test is Phakopsora pachyrhizi. Briefly: Asian Soybean Rust (PHAKPA) disease control. As to conditions: Phakopsora pachyrhizi, topical. In a few lines:
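Compounds in acetone diluted with nine volumes water containing 0.011% Tween 20, sprayed to run-off on two-week-old Williams 82 soybean seedlings, inoculated 3 days before or 1 day after treatment. Plants held 24 h in dark dew room at 22 °C, 100% RH, then at 23 °C; disease severity scored on sprayed leaves.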

Setting [4] is: 24 h, 1 Day Protectant, read-out: PUCCRT 1 DP disease control.
The mark [5] stands for this setting: 24 h, 1 Day Protectant, rate 121.5 g/H, read-out: PUCCRT 1 DP disease control.
[6] abbreviates: 72 h, 3 Day Curative, read-out: PUCCRT 3 DC disease control.
Where [7] appears, read: 72 h, 3 Day Curative, rate 121.5 g/H, read-out: PUCCRT 3 DC disease control.
Setting [8] is: 24 h, 1 Day Protectant, read-out: SEPTTR 1 DP disease control.
The mark [9] stands for this setting: 24 h, 1 Day Protectant, rate 121.5 g/H, read-out: SEPTTR 1 DP disease control.
[10] abbreviates: 72 h, 3 Day Curative, read-out: SEPTTR 3 DC disease control.
[11] abbreviates: 72 h, 3 Day Curative, rate 121.5 g/H, read-out: SEPTTR 3 DC disease control.
Setting [12] is: 24 h, 1 Day Protectant, read-out: Disease Control PHAKPA 1DP.
The mark [13] stands for this setting: 72 h, 3 Day Curative, read-out: Disease Control PHAKPA 3DC.

Read-outs that look alike come from different tables or passages of the source.

With `CCCO[C@@H]1[C@@H](Cc2ccc(F)cc2)CCC[C@H](NC(=O)c2nccc(OC)c2OCOC(=O)COCC)C(=O)O[C@H]1C` [Compound F167], the pest or weed control at 100 ppm in test [1], in test [2] (setting [4]), in test [2] (setting [6]), in test [3] (setting [8]) and in test [3] (setting [10]) was 80 to 100% each time. In addition, the pest or weed control at 121.5 g/ha in test [2] (setting [5]), in test [2] (setting [7]), in test [3] (setting [9]) and in test [3] (setting [11]) was 80 to 100% throughout. The figures for the pest or weed control at 25 ppm with Phakopsora pachyrhizi (setting [12]) and with Phakopsora pachyrhizi (setting [13]) were 80 to 100% and 0 to 80%, respectively.

On to `CCOCC(=O)OCOc1c(OC)ccnc1C(=O)N[C@H]1CCC[C@H](Cc2ccc(F)cc2)[C@@H](OCC(C)C)[C@H](C)OC1=O` [Compound F168], for which the pest or weed control at 100 ppm in test [1], in test [2] (setting [4]), in test [2] (setting [6]), in test [3] (setting [8]) and in test [3] (setting [10]) was 80 to 100% each time. For the same compound, the pest or weed control at 121.5 g/ha in test [2] (setting [5]), in test [2] (setting [7]), in test [3] (setting [9]) and in test [3] (setting [11]) was 80 to 100% throughout. For the same compound, the pest or weed control at 25 ppm in the test with Phakopsora pachyrhizi (setting [12]) fell in the range of 80 to 100%; with Phakopsora pachyrhizi (setting [13]), 0 to 80%.

As to `CCOCC(=O)OCOc1c(OC)ccnc1C(=O)N[C@H]1CCC[C@H](Cc2ccccc2)[C@@H](OCC(C)C)[C@H](C)OC1=O` [Compound F172], the pest or weed control at 100 ppm in test [1], in test [2] (setting [4]), in test [2] (setting [6]), in test [3] (setting [8]) and in test [3] (setting [10]) was 80 to 100% each time. Further, the pest or weed control at 121.5 g/ha in test [2] (setting [5]), in test [2] (setting [7]), in test [3] (setting [9]) and in test [3] (setting [11]) was 80 to 100% each time. In addition, the pest or weed control at 25 ppm is 80 to 100% with Phakopsora pachyrhizi (setting [12]) and 0 to 80% with Phakopsora pachyrhizi (setting [13]).

Regarding `CCOCC(=O)OCOc1c(OC)ccnc1C(=O)N[C@H]1CCC[C@H](Cc2ccccc2)[C@@H](OCC2CC2)[C@H](C)OC1=O` [Compound F173], the pest or weed control at 100 ppm in test [1], in test [2] (setting [4]), in test [2] (setting [6]), in test [3] (setting [8]) and in test [3] (setting [10]) was 80 to 100% each time. The pest or weed control at 121.5 g/ha in test [2] (setting [5]), in test [2] (setting [7]), in test [3] (setting [9]) and in test [3] (setting [11]) was 80 to 100% in each case. Also, the pest or weed control at 25 ppm in the test on Phakopsora pachyrhizi (setting [12]) and in the test with Phakopsora pachyrhizi (setting [13]) was 80 to 100% in each case.

Turning to `CCCO[C@@H]1[C@@H](Cc2ccccc2)CCC[C@H](NC(=O)c2nccc(OC)c2OCOC(=O)COCC)C(=O)O[C@H]1C` [Compound F174], the pest or weed control at 100 ppm in test [1], in test [2] (setting [4]), in test [2] (setting [6]), in test [3] (setting [8]) and in test [3] (setting [10]) was 80 to 100% each time. Also, the pest or weed control at 121.5 g/ha in test [2] (setting [5]), in test [2] (setting [7]), in test [3] (setting [9]) and in test [3] (setting [11]) was 80 to 100% in each case. Moreover, the values for the pest or weed control at 25 ppm in the test on Phakopsora pachyrhizi (setting [12]) and with Phakopsora pachyrhizi (setting [13]) were 80 to 100% and 0 to 80%, respectively.

As to `CCOCC(=O)OCOc1c(OC)ccnc1C(=O)N[C@H]1CCC[C@H](CCF)[C@@H](OCC(C)C)[C@H](C)OC1=O` [Compound F181], the pest or weed control at 100 ppm in test [1] fell in the range of 0 to 80%; in test [2] (setting [4]), 80 to 100%; in test [2] (setting [6]), 80 to 100%; in test [3] (setting [8]), 80 to 100%; in test [3] (setting [10]), 80 to 100%. In addition, the pest or weed control at 121.5 g/ha in test [2] (setting [5]), in test [2] (setting [7]), in test [3] (setting [9]) and in test [3] (setting [11]) was 80 to 100% in each case. The pest or weed control at 25 ppm in the test with Phakopsora pachyrhizi (setting [12]) and in the test with Phakopsora pachyrhizi (setting [13]) was 80 to 100% in each case.

`CCOCC(=O)OCOc1c(OC)ccnc1C(=O)N[C@H]1CCC[C@H](CCOC)[C@@H](Oc2ccccc2)[C@H](C)OC1=O` [Compound F183]: the pest or weed control at 100 ppm lay within 0 to 80% in test [1]; 80 to 100% in test [2] (setting [4]); 80 to 100% in test [2] (setting [6]); 80 to 100% in test [3] (setting [8]); 80 to 100% in test [3] (setting [10]). In addition, the pest or weed control at 121.5 g/ha in test [2] (setting [5]), in test [2] (setting [7]), in test [3] (setting [9]) and in test [3] (setting [11]) was 80 to 100% in each case. In addition, the pest or weed control at 25 ppm in the test with Phakopsora pachyrhizi (setting [12]) and in the test on Phakopsora pachyrhizi (setting [13]) was 80 to 100% in each case.

For `CCOCC(=O)OCOc1c(OC)ccnc1C(=O)N[C@H]1CCC[C@H](Cc2ccc(F)cc2F)[C@@H](OC(=O)c2ccco2)[C@H](C)OC1=O` [Compound F193], the pest or weed control at 100 ppm in test [1] fell in the range of 0 to 80%. Further, the pest or weed control at 121.5 g/ha fell in the range of 80 to 100% in test [2] (24 h, Wheat Brown Rust, 1 Day Protectant, rate 121.5 g/H (low volume application), read-out: Disease control PUCCRT 1 DP); 80 to 100% in test [3] (24 h, Wheat Leaf Blotch, 1 Day Protectant, rate 121.5 g/H (low volume application), read-out: Disease control SEPTTR 1 DP); 0 to 80% in test [3] (72 h, Wheat Leaf Blotch, 3 Day Curative, rate 121.5 g/H (low volume application), read-out: Disease control SEPTTR 3 DC). Also, the pest or weed control at 25 ppm with Phakopsora pachyrhizi (setting [12]) and with Phakopsora pachyrhizi (setting [13]) was 0 to 80% throughout.

Source of the values: patent publication US9265253B2, “Use of macrocyclic picolinamides as fungicides” (DOW AGROSCIENCES LLC, priority 2013, dated 2016).
